According to paper PMC6920806, “Synthesis of β-D-galactopyranoside-Presenting Glycoclusters, Investigation of Their Interactions with Pseudomonas aeruginosa Lectin A (PA-IL) and Evaluation of Their Anti-Adhesion Potential” (Biomolecules, 2019):
“Also recorded” adds a separate entry of the source.

Assays:
[1] = tested on: Pseudomonas aeruginosa CCM 3955 (ATCC 27853) cells; assay: Pseudomonas aeruginosa cross-linking assay with microscope detection; format: cell-based; settings: for cross-linking of whole P. aeruginosa cells (cell aggregates): concentrations up to 5 mM, 10 min, microscope 100x
Procedure: Pseudomonas aeruginosa CCM 3955 (ATCC 27853) cells were inoculated from stock cells stored at −80 °C into a standard LB medium and were grown at 37 °C overnight under orbital shaking. The bacterial culture was kept in the fridge until further use. Prior to the experiment, bacterial cells were centrifuged at 4300× g (Eppendorf centrifuge MiniSpin, Eppendorf, Germany) for 2 min and subsequently washed three times with PBS buffer (137 mM NaCl, 2.7 mM KCl, 10 mM Na2HPO4, 1.8 mM KH2PO4). Bacterial cells were then diluted in PBS to an optical density OD600 = 1.5, which was checked using a spectrophotometer (WPA CO8000 Biovawe Cell Density Metr, Biochrom Ltd., Cambridge, UK). D-galactopyranoside-presenting inhibitors were diluted in ultrapure water to the concentration of 100 mM. Bacterial cells were mixed in a 9:1 ratio with the 10x concentrated selected compounds and gently mixed. The mixture was incubated at room temperature for 10 min and thoroughly mixed again. An amount of 5 µL of the mixture was transferred onto a microscope slide and observed under 100x magnification using an optical microscope (Olympus IX81F-3/IX81S1F-3, Olympus, Tokyo, Japan). As a negative control, bacterial culture mixed with ultrapure water in 9:1 ratio was used. The images were obtained using a phase contrast method and the background of the images was subtracted in GIMP.

lectin PA-IL [2] = target: T1, lectin PA-IL (Pseudomonas aeruginosa, UniProt Q05097); assay: Isothermal titration microcalorimetry (ITC); format: binding; settings: for ΔH / Ka / −T ΔS / ΔG / n (stoichiometry): ITC, 25 °C; for Ka: association constant; for −T ΔS: calculated from ΔG = ΔH − TΔS; for ΔG: calculated from −RT ln Ka; for n (stoichiometry): single site-binding model
T1 construct: made in house; host or cells: Escherichia coli BL21(DE3)
Procedure: All the experiments were performed on MicroCal iTC200 (Malvern Instruments, Malvern, UK) at 25 °C. The freeze-dried lectin PA-IL was dissolved in 0.1 M Tris/HCl, 500 μM CaCl2, pH = 7.5, and equilibrated at room temperature for 1 h before ITC measurements. Multivalent galactosylated compounds 4, 7, 10 and 13 were diluted in the same buffer and used in 0.25–0.5 mM concentrations. Aliquots of 2 µL of the compounds were added automatically to the 0.078 mM or 0.088 mM PA-IL in the calorimeter cell. Blank experiments (injections of compounds to the buffer) were performed and heat responses were subtracted. Integrated heat effects were analyzed by global fitting of data obtained from three independent titrations for each tested compound by non-linear regression using a single site-binding model (Microcal Origin 7, Malvern Instruments, Malvern, UK). Fitted data yielded the association constant (Ka) and the enthalpy of binding (ΔH). Other thermodynamic parameters, i.e., changes in free energy (ΔG) and entropy (ΔS), were calculated from the following equation: ΔG = ΔH − TΔS = −RT ln Ka, where T is the absolute temperature and R = 8.314 J mol^−1 K^−1. The monosaccharide D-galactose was used as a control; 4 mM D-galactose was added to the 0.147 mM PA-IL in the calorimeter cell. Two titration experiments were performed and the heat responses were processed and evaluated as mentioned above.

lectin PA-IL [3] = target: T1, lectin PA-IL; assay: Analytical ultracentrifugation (sedimentation velocity), cross-linking of lectin; settings: for cross-linking of PA-IL (formation of the 6.4 S particle): protein:ligand ratios 1:0.1, 1:1, 1:10; for level of cross-linking (6.4 S octameric species): 1:0.1 protein to ligand ratio, 22 µM PA-IL
Procedure: Analytical ultracentrifugation experiments were performed using ProteomeLab XL-I analytical ultracentrifuge (Beckman Coulter, Indianapolis, IN, USA) equipped with an An-60 Ti rotor. Sedimentation velocity experiments were conducted in titanium double-sector centerpiece cells (Nanolytics Instruments, Potsdam, Germany) loaded with 390 µL of both protein sample and reference solution (PBS buffer, pH = 7.5). PA-IL without the added ligand and PA-IL samples pre-incubated with different concentrations of galactosylated dendrimers 4, 7, 10 and 13 and D-galactose (protein:ligand ratios of 1:0.1, 1:1 and 1:10) were analyzed by the sedimentation velocity experiment. All the measurements were performed in PBS buffer with 22 µM PA-IL. Data were collected using absorbance optics at 25 °C at a rotor speed of 48,000 rpm. Scans were collected at 280 nm (or alternatively at 294 nm to decrease the absorbance signal of the samples containing excess of the UV-absorbing ligands 4 and 10) at 5-min intervals and 0.003 cm spatial resolution in continuous scan mode. The partial specific volume of the protein and the solvent density and viscosity were calculated from the amino acid sequence and buffer composition, respectively, using the software Sednterp (http://bitcwiki.sr.unh.edu). The data were analyzed with the continuous c(s) distribution model implemented in the program Sedfit 15.01b. For the regularization procedure, a confidence level of 0.95 was used. The plots of c(s) distributions were created in GUSSI 1.3.1 [28].

T1 sequence (Q05097 2-122): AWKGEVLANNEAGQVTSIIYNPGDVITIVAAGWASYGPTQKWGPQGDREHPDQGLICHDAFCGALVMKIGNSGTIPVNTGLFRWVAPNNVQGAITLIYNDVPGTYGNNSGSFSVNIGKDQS

Structure (SMILES)	cross-linking of whole P. aeruginosa cells (cell aggregates) [1]	ΔH (lectin PA-IL [2]) [kcal/mol]	Ka (lectin PA-IL [2])	−T ΔS (lectin PA-IL [2]) [kcal/mol]	ΔG (lectin PA-IL [2]) [kcal/mol]	n (stoichiometry) (lectin PA-IL [2])	cross-linking of PA-IL (formation of the 6.4 S particle) (lectin PA-IL [3])	concentration at which aggregates distinguishable from the negative control were still observed [1] [mM]	level of cross-linking (6.4 S octameric species) (lectin PA-IL [3])	Kd (lectin PA-IL [2]) [µM]
COC(=O)c1cc(OCc2cn(CCOCCOCCOCCn3cc(CO[C@@H]4O[C@H](CO)[C@H](O)[C@H](O)[C@H]4O)nn3)nn2)c(OCc2cn(CCOCCOCCOCCn3cc(CO[C@@H]4O[C@H](CO)[C@H](O)[C@H](O)[C@H]4O)nn3)nn2)c(OCc2cn(CCOCCOCCOCCn3cc(CO[C@@H]4O[C@H](CO)[C@H](O)[C@H](O)[C@H]4O)nn3)nn2)c1 [Compound 4]	Formation of aggregates was observed	-19.3 ± 0.241	128 ± 15.1 10^4 M^−1	11 ± 1.43	-8.32 ± 0.982	0.51 ± 0.01	did not form intermolecular cross-links			
OC[C@H]1O[C@@H](OCc2cn(CCOCCOCCOCCn3cc(COCC(COCc4cn(CCOCCOCCOCCn5cc(CO[C@@H]6O[C@H](CO)[C@H](O)[C@H](O)[C@H]6O)nn5)nn4)(COCc4cn(CCOCCOCCOCCn5cc(CO[C@@H]6O[C@H](CO)[C@H](O)[C@H](O)[C@H]6O)nn5)nn4)COCc4cn(CCOCCOCCOCCn5cc(CO[C@@H]6O[C@H](CO)[C@H](O)[C@H](O)[C@H]6O)nn5)nn4)nn3)nn2)[C@H](O)[C@@H](O)[C@H]1O [Compound 7]	highest cross-linking activity; also recorded: Formation of aggregates was observed	-26.29 ± 0.196	281 ± 23.5 10^4 M^−1	17.4 ± 1.59	-8.8 ± 0.739	0.32 ± 0.01	induced the formation of the 6.4 S particle	1.25	~ 30%	
OC[C@H]1O[C@@H](OCc2cn(CCn3cc(COCC(COCc4cn(CCn5cc(CO[C@@H]6O[C@H](CO)[C@H](O)[C@H](O)[C@H]6O)nn5)nn4)(COCc4cn(CCn5cc(CO[C@@H]6O[C@H](CO)[C@H](O)[C@H](O)[C@H]6O)nn5)nn4)COCc4cn(CCn5cc(CO[C@@H]6O[C@H](CO)[C@H](O)[C@H](O)[C@H]6O)nn5)nn4)nn3)nn2)[C@H](O)[C@@H](O)[C@H]1O [Compound 13]	no aggregates were observed; also recorded: no clearly distinguishable aggregates were detected	-32.03 ± 0.347	470 ± 54.5 10^4 M^−1	22.9 ± 2.904	-9.11 ± 1.06	0.21 ± 0.01	induced the formation of the 6.4 S particle		~ 15%	
COC(=O)c1cc(OCc2cn(CCn3cc(CO[C@@H]4O[C@H](CO)[C@H](O)[C@H](O)[C@H]4O)nn3)nn2)c(OCc2cn(CCn3cc(CO[C@@H]4O[C@H](CO)[C@H](O)[C@H](O)[C@H]4O)nn3)nn2)c(OCc2cn(CCn3cc(CO[C@@H]4O[C@H](CO)[C@H](O)[C@H](O)[C@H]4O)nn3)nn2)c1 [Compound 10]	Formation of aggregates was observed	-16.3 ± 0.179		7.98 ± 0.925	-8.29 ± 0.87	0.53 ± 0.01	induced the formation of the 6.4 S particle		~ 15%	0.82
